Patent US9150553B2, “Carboxamide compounds and their use as calpain inhibitors” (AbbVie Deutschland GmbH & Co. KG, priority 2007, dated 2015)

Tests used:
Assay type in all cases: biochemical
[1] = biological target: T1, calpain-I isolated from human erythrocytes (Homo sapiens, UniProt P07384); assay: Calpain I enzyme inhibition, kinetic fluorescence assay; conditions: apparent Ki from IC50 by Cheng-Prussoff; pH 7.3, room temperature
T1 construct: calpain-I—isolated from human erythrocytes; purchased Calbiochem 208713; host or cells: human erythrocytes (native tissue isolate)
T1 sequence (P07384 1-714): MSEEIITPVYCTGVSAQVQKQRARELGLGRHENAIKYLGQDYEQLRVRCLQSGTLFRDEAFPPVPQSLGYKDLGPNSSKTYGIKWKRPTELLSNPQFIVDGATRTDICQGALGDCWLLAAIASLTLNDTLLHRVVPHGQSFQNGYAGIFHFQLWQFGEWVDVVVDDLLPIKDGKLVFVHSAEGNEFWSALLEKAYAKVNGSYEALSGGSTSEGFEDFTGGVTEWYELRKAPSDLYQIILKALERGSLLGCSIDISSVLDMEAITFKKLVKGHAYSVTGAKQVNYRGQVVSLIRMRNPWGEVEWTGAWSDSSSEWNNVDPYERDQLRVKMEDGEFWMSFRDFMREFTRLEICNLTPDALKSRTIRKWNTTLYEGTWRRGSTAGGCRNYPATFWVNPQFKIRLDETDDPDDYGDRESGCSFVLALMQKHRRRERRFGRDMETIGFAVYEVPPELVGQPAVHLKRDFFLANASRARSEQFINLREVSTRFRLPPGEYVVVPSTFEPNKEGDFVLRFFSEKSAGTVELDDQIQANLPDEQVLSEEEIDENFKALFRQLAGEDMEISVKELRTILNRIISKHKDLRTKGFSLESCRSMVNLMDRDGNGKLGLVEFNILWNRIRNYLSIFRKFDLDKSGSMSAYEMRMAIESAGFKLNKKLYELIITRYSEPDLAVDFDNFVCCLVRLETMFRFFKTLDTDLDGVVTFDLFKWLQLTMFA
T1 sequence (P04632 1-268 partner): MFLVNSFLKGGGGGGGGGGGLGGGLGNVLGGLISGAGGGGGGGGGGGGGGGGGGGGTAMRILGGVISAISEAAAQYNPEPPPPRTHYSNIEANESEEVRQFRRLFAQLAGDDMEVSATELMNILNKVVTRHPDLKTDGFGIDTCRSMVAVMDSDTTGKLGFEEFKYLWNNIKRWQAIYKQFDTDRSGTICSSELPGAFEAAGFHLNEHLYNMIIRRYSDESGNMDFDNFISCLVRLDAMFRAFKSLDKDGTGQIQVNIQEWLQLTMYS
Protocol: The following solutions and buffers were employed: • HBS (for 40 ml): 800 μl 1M HEPES; 2.16 ml 100 mM KCl; 4.8 ml 1M NaCl; 3.59 ml 5% glucose; 60 μl 1M MgSO4; 400 μl 100 mM Na pyruvate, 28.19 ml water; pH 7.2-7.5. • lysis buffer (for 20 ml): 400 μl 1M Tris pH 8.2; 2.74 ml 1M NaCl; 520 μl 0.5M EDTA; 2 ml 10% triton X-100; 0.8 ml (=1:25) CompletePlus (1 tablet/2 ml H2O); 200 μl 100 mM Pefabloc; 13.34 ml water, pH 8.2. • TBST (10×) (for 1I): 100 mM Tris (12.1 g); 1.5M NaCl (87 g); 1% Tween 20 (10 g), adjusted to pH 8. I. Enzyme Inhibition In Vitro: • Testing for blockade of the corresponding enzymic activities was carried out by means of kinetic fluorescence assays (excitation 390 nm, emission 460 nm). • Apparent Ki values were calculated from the experimentally determined IC50 values by the Cheng-Prussoff relation assuming a reversible competitive enzyme inhibition. The Km values of the substrates used under the assay conditions indicated above were: 90 μM (Z-Phe-Arg-AMC, cathepsin B), 10 μM (Z-Gly-Pro-Arg-AMC, cathepsin K), 2 μM (Z-Phe-Arg-AMC, cathepsin L), and 30 μM (Z-Val-Val-Arg-AMC, cathepsin S). • The indicated Ki values are averages of the inhibition constants calculated on the basis of 2 to 4 independent dose-effect plots. • The following assays were used: • 1. Calpain I: • 20 nM calpain-I—isolated from human erythrocytes (Calbiochem #208713), 100 μM Suc-Leu-Tyr-AMC (Bachem #I-1355) as substrate in buffer with 62 mM imidazole, 0.3 mM CaCl2, 0.10% CHAPS, 0.05% BSA, 1 mM DTT at pH 7.3 and room temperature. • 2. Cathepsin B: • 0.25 nM cathepsin B—isolated from human liver (Calbiochem #219362), 100 μM Z-Phe-Arg-AMC (Bachem #I-1160) as substrate 50 mM MES, 2 mM EDTA, 0.05% Brij 35, 2.5 mM L-cysteine, pH 6.0, room temperature. • 3. Cathepsin K: • 3 nM cathepsin K—activated from recombinant human procathepsin K from E. coli (Calbiochem #342001), 10 μM Z-Gly-Pro-Arg-AMC (Biomol #P-142) as substrate in 50 mM MES, 2 mM EDTA, 0.05% Brij 35, 2.5 mM L-cysteine, pH 6.0, room temperature. • 4. Cathepsin L: • 1 nM cathepsin L—isolated from human liver (Calbiochem #219402), 2 μM Z-Phe-Arg-AMC (Bachem #I-1160) as substrate in 50 mM MES, 2 mM EDTA, 0.05% Brij 35, 2.5 mM L-cysteine, pH 6.0, room temperature. • 5. Cathepsin S: • 0.5 nM recombinant human cathepsin S from E. coli (Calbiochem #219343), 20 μM Z-Val-Val-Arg-AMC (Bachem #I-1540) as substrate in 50 mM MES, 2 mM EDTA, 0.05% Brij 35, 2.5 mM L-cysteine, pH 6.0, room temperature. • The results of the in vitro determination are indicated in Table 2. The following abbreviations are used in Table 2: • The “Calpain activity” column, ++ stands for a calpain Ki (Ki(calpain)) of ≦40 nM, + means: 40 nM<Ki(Calpain)≦100 nM, 0 means 100 nM<Ki(Calpain)≦1 μM, − means 1 μM<Ki(Calpain)≦10 μM, −− means Ki(Calpain)>10 μM. • The “Sel. cat. B” column indicates the Ki(cathepsin B)/Ki(calpain) ratio. In this connection, ++ means a Ki(cathepsin B)/Ki(calpain) ratio of ≧30 and + means≦10≦Ki(cathepsin B)/Ki(calpain)<30. • The “Sel. cat. K” column indicates the Ki(cathepsin K)/Ki(calpain) ratio. In this connection, ++ means a Ki(cathepsin K)/Ki(calpain) ratio of ≧30 and + means 10≦Ki(cathepsin K)/Ki(calpain)<30. • The “Sel. cat. L” column indicates the Ki(cathepsin L)/Ki(calpain) ratio. In this connection, ++ means a Ki(cathepsin L)/Ki(calpain) ratio of ≧50 and + means 30≦Ki(cathepsin L)/Ki(calpain)<50. • The “Sel. cat. S” column indicates the Ki(cathepsin S)/Ki(calpain) ratio. […]

[2] = biological target: T2, cathepsin B isolated from human liver (Homo sapiens, UniProt P07858); assay: Cathepsin B enzyme inhibition, kinetic fluorescence assay; conditions: selectivity ratio
T2 construct: cathepsin B—isolated from human liver; purchased Calbiochem 219362; host or cells: human liver (native tissue isolate)
Protocol: (§1) The following solutions and buffers were employed: • HBS (for 40 ml): 800 μl 1M HEPES; 2.16 ml 100 mM KCl; 4.8 ml 1M NaCl; 3.59 ml 5% glucose; 60 μl 1M MgSO4; 400 μl 100 mM Na pyruvate, 28.19 ml water; pH 7.2-7.5. • lysis buffer (for 20 ml): 400 μl 1M Tris pH 8.2; 2.74 ml 1M NaCl; 520 μl 0.5M EDTA; 2 ml 10% triton X-100; 0.8 ml (=1:25) CompletePlus (1 tablet/2 ml H2O); 200 μl 100 mM Pefabloc; 13.34 ml water, pH 8.2. • TBST (10×) (for 1I): 100 mM Tris (12.1 g); 1.5M NaCl (87 g); 1% Tween 20 (10 g), adjusted to pH 8. I. Enzyme Inhibition In Vitro: • Testing for blockade of the corresponding enzymic activities was carried out by means of kinetic fluorescence assays (excitation 390 nm, emission 460 nm). • Apparent Ki values were calculated from the experimentally determined IC50 values by the Cheng-Prussoff relation assuming a reversible competitive enzyme inhibition. The Km values of the substrates used under the assay conditions indicated above were: 90 μM (Z-Phe-Arg-AMC, cathepsin B), 10 μM (Z-Gly-Pro-Arg-AMC, cathepsin K), 2 μM (Z-Phe-Arg-AMC, cathepsin L), and 30 μM (Z-Val-Val-Arg-AMC, cathepsin S). • The indicated Ki values are averages of the inhibition constants calculated on the basis of 2 to 4 independent dose-effect plots. • The following assays were used: • 1. Calpain I: • 20 nM calpain-I—isolated from human erythrocytes (Calbiochem #208713), 100 μM Suc-Leu-Tyr-AMC (Bachem #I-1355) as substrate in buffer with 62 mM imidazole, 0.3 mM CaCl2, 0.10% CHAPS, 0.05% BSA, 1 mM DTT at pH 7.3 and room temperature. • 2. Cathepsin B: • 0.25 nM cathepsin B—isolated from human liver (Calbiochem #219362), 100 μM Z-Phe-Arg-AMC (Bachem #I-1160) as substrate 50 mM MES, 2 mM EDTA, 0.05% Brij 35, 2.5 mM L-cysteine, pH 6.0, room temperature. • 3. Cathepsin K: • 3 nM cathepsin K—activated from recombinant human procathepsin K from E. coli (Calbiochem #342001), 10 μM Z-Gly-Pro-Arg-AMC (Biomol #P-142) as substrate in 50 mM MES, 2 mM EDTA, 0.05% Brij 35, 2.5 mM L-cysteine, pH 6.0, room temperature. • 4. […]

[3] = biological target: T3, cathepsin K activated from recombinant human procathepsin K (Homo sapiens, UniProt P43235); assay: Cathepsin K enzyme inhibition, kinetic fluorescence assay; conditions: selectivity ratio
T3 construct: purchased Calbiochem 342001; host or cells: E. coli
T3 sequence (P43235 115-329): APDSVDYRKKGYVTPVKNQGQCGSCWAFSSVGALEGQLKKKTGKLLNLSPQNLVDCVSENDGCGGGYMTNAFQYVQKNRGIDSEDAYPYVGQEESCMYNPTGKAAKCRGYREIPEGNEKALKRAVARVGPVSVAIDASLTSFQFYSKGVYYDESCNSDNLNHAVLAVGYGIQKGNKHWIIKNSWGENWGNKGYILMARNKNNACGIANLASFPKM
Protocol: as §1

[4] = biological target: T4, cathepsin L isolated from human liver (Homo sapiens, UniProt P07711); assay: Cathepsin L enzyme inhibition, kinetic fluorescence assay; conditions: selectivity ratio
T4 construct: cathepsin L—isolated from human liver; purchased Calbiochem 219402; host or cells: human liver (native tissue isolate)
T4 sequence (P07711 114-333): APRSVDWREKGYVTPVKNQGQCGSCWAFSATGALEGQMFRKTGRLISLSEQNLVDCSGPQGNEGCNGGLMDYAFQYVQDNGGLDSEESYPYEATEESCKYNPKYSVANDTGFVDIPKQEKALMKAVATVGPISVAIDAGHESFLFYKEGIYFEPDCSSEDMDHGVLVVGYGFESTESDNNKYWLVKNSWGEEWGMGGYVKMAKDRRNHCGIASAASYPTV
Protocol: as §1

[5] = biological target: T5, recombinant human cathepsin S (Homo sapiens, UniProt P25774); assay: Cathepsin S enzyme inhibition, kinetic fluorescence assay; conditions: selectivity ratio
T5 construct: purchased Calbiochem 219343; host or cells: E. coli
T5 sequence (P25774 115-331): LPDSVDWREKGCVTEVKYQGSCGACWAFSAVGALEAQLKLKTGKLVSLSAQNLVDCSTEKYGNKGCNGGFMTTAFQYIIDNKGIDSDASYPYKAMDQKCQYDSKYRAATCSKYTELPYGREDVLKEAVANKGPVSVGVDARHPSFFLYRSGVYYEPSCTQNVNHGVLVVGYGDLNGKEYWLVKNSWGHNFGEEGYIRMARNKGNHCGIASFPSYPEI
Protocol: as §1

SMILES | Ki [1] | Sel cat. B: Ki(cathepsin B)/Ki(calpain) ratio [2] | Sel cat. K: Ki(cathepsin K)/Ki(calpain) ratio [3] | Sel cat. L: Ki(cathepsin L)/Ki(calpain) ratio [4] | Sel cat. S: Ki(cathepsin S)/Ki(calpain) ratio [5]
NC(=O)C1(C(Cc2ccc(F)cc2)NC(=O)c2cccnc2-n2ccc(-c3ccc(Cl)cc3Cl)n2)OCCO1 (stereo not shown) [Compound I-1, N-[1-[2-(Aminocarbonyl)-1,3-dioxolan-2-yl]-2-(4-fluorophenyl)ethyl]-2-[3-(2,4-dichlorophenyl)-1H-pyrazol-1-yl]nicotinamide] | > 10000 nM | – | – | – | –
NC(=O)C(=O)C(Cc1ccccc1)NC(=O)c1cccnc1-n1ccc(-c2cccc(C(F)(F)F)c2)n1 (stereo not shown) [Compound II-2, N-(3-Amino-1-benzyl-2,3-dioxopropyl)-2-{3-[3-(trifluoromethyl)phenyl]-1H-pyrazol-1-yl}nicotinamide] | ≤ 40 nM | + (+ means≦10≦Ki(cathepsin B)/Ki(calpain)<30) | ++ (++ means a Ki(cathepsin K)/Ki(calpain) ratio of ≧30) | ++ (++ means a Ki(cathepsin L)/Ki(calpain) ratio of ≧50) | ++ (++ means a Ki(cathepsin S)/Ki(calpain) ratio of ≧100)
NC(=O)C(=O)C(Cc1ccc(F)cc1)NC(=O)c1cccnc1-n1ccc(-c2ccc(Cl)cc2Cl)n1 (stereo not shown) [II-1, N-[3-amino-1-(4-fluorobenzyl)-2,3-dioxopropyl]-2-[3-(2,4-dichlorophenyl)-1H-pyrazol-1-yl]nicotinamide] | 40 to 100 nM | ++ (++ means a Ki(cathepsin B)/Ki(calpain) ratio of ≧30) | ++ (++ means a Ki(cathepsin K)/Ki(calpain) ratio of ≧30) | ++ (++ means a Ki(cathepsin L)/Ki(calpain) ratio of ≧50) | ++ (++ means a Ki(cathepsin S)/Ki(calpain) ratio of ≧100)
NC(=O)C(=O)C(Cc1ccccc1)NC(=O)c1cccnc1-n1ccc(-c2ccc(F)cc2)n1 (stereo not shown) [II-3, N-(3-amino-1-benzyl-2,3-dioxopropyl)-2-[3-(4-fluorophenyl)-1H-pyrazol-1-yl]nicotinamide] | 40 to 100 nM | + (+ means≦10≦Ki(cathepsin B)/Ki(calpain)<30) | + (+ means 10≦Ki(cathepsin K)/Ki(calpain)<30) | ++ (++ means a Ki(cathepsin L)/Ki(calpain) ratio of ≧50) | ++ (++ means a Ki(cathepsin S)/Ki(calpain) ratio of ≧100)
